Several values for one entry are separate records, joined by “and”; a condition that tells them apart may be missing. Identical values can stand only once.
Experiment: xn = mol fraction of the nth substance listed

CCC(C)=O + Cc1ccccc1
viscosity, 101 kPa
Conditions	298.15 K	303.15 K	308.15 K
x1 = 0.1009	–	0.516 mPa·s	–
x1 = 0.2412	–	0.496 mPa·s	–
x1 = 0.3948	–	0.475 mPa·s	–
x1 = 0.524	–	0.458 mPa·s	–
x1 = 0.7006	–	0.431 mPa·s	–
x1 = 0.8899	–	0.397 mPa·s	–
x2 = 0.0856	0.4052 mPa·s and 0.4052 mPa·s	0.3822 mPa·s and 0.3822 mPa·s	0.3593 mPa·s and 0.3593 mPa·s
x2 = 0.1724	0.4244 mPa·s and 0.4244 mPa·s	0.3996 mPa·s and 0.3996 mPa·s	0.3756 mPa·s and 0.3756 mPa·s
x2 = 0.2624	0.4439 mPa·s and 0.4439 mPa·s	0.4176 mPa·s and 0.4176 mPa·s	0.3922 mPa·s and 0.3922 mPa·s
x2 = 0.337	0.4594 mPa·s and 0.4594 mPa·s	0.432 mPa·s and 0.432 mPa·s	0.4061 mPa·s and 0.4061 mPa·s
x2 = 0.433	0.4781 mPa·s and 0.4781 mPa·s	0.4494 mPa·s and 0.4494 mPa·s	0.423 mPa·s and 0.423 mPa·s
x2 = 0.5555	0.4987 mPa·s and 0.4987 mPa·s	0.4688 mPa·s and 0.4688 mPa·s	0.4417 mPa·s and 0.4417 mPa·s
x2 = 0.66	0.5145 mPa·s and 0.5145 mPa·s	0.4844 mPa·s and 0.4844 mPa·s	0.4575 mPa·s and 0.4575 mPa·s
x2 = 0.769	0.5308 mPa·s and 0.5308 mPa·s	0.5002 mPa·s and 0.5002 mPa·s	0.4738 mPa·s and 0.4738 mPa·s
x2 = 0.8831	0.5472 mPa·s and 0.5472 mPa·s	0.5168 mPa·s and 0.5168 mPa·s	0.4909 mPa·s and 0.4909 mPa·s

COCCOC + Cc1ccccc1
298.15 K, 101 kPa
Conditions	viscosity [mPa·s]
x1 = 0.102	0.535
x1 = 0.2036	0.509
x1 = 0.3047	0.486
x1 = 0.4053	0.462
x1 = 0.5055	0.444
x1 = 0.6053	0.434
x1 = 0.7046	0.429
x1 = 0.8035	0.425
x1 = 0.902	0.419

COC(C)=O + Cc1ccccc1C
viscosity [mPa·s], 101 kPa
Conditions	298.15 K	308.15 K
x1 = 0.0434	0.731	0.636
x1 = 0.1489	0.668	0.587
x1 = 0.2499	0.616	0.546
x1 = 0.3517	0.57	0.508
x1 = 0.444	0.533	0.478
x1 = 0.4974	0.513	0.462
x1 = 0.5506	0.495	0.447
x1 = 0.6497	0.465	0.422
x1 = 0.7494	0.438	0.399
x1 = 0.851	0.414	0.378
x1 = 0.9458	0.394	0.36

COc1ccccc1N + ClC(Cl)(Cl)Cl
viscosity [mPa·s], 100 kPa
Conditions	x2 = 0.0821	x2 = 0.1726	x2 = 0.2547	x2 = 0.3403	x2 = 0.4788	x2 = 0.5789	x2 = 0.6781	x2 = 0.7641	x2 = 0.8447
298.15 K	5.011	4.611	4.247	3.866	3.249	2.8	2.355	1.967	1.603
303.15 K	4.596	4.234	3.904	3.559	2.996	2.587	2.179	1.824	1.489
308.15 K	4.218	3.892	3.593	3.28	2.768	2.394	2.02	1.694	1.385
313.15 K	3.917	3.619	3.346	3.057	2.585	2.239	1.892	1.587	1.299
318.15 K	3.643	3.371	3.121	2.856	2.42	2.099	1.776	1.491	1.221

COc1ccccc1N + ClC(Cl)C(Cl)Cl
viscosity [mPa·s], 100 kPa
Conditions	x1 = 0.0911	x1 = 0.1962	x1 = 0.2806	x1 = 0.3816	x1 = 0.4976	x1 = 0.6023	x1 = 0.7116	x1 = 0.8104	x1 = 0.9212
303.15 K	1.786	2.165	2.464	2.82	3.224	3.584	3.957	4.291	4.66
308.15 K	1.673	2.029	2.309	2.639	3.013	3.347	3.692	4.001	4.337
313.15 K	1.562	1.895	2.154	2.458	2.802	3.111	3.427	3.709	4.012

COC(C)=O + ClC(Cl)Cl
303.15 K, 101.3 kPa
Conditions	viscosity [mPa·s]
x1 = 0.1026	0.5228
x1 = 0.2027	0.525
x1 = 0.3012	0.5197
x1 = 0.4009	0.5018
x1 = 0.5028	0.4782
x1 = 0.6033	0.4508
x1 = 0.7158	0.4176
x1 = 0.813	0.3893
x1 = 0.8983	0.3686

COC(C)=O + ClCCCl
303.15 K, 101.3 kPa
Conditions	viscosity [mPa·s]
x1 = 0.1016	0.6754
x1 = 0.199	0.6342
x1 = 0.2978	0.594
x1 = 0.4014	0.5517
x1 = 0.4966	0.5168
x1 = 0.5959	0.4819
x1 = 0.6976	0.4445
x1 = 0.8973	0.378

COc1ccccc1N + ClCCCl
viscosity [mPa·s], 100 kPa
Conditions	x1 = 0.0875	x1 = 0.1658	x1 = 0.2536	x1 = 0.3656	x1 = 0.4856	x1 = 0.5902	x1 = 0.6816	x1 = 0.7704	x1 = 0.8841
303.15 K	1.101	1.438	1.814	2.291	2.797	3.235	3.613	3.98	4.448
308.15 K	1.037	1.353	1.704	2.148	2.617	3.022	3.372	3.711	4.139
313.15 K	0.974	1.27	1.596	2.004	2.436	2.808	3.13	3.439	3.829

COCCOC + Clc1ccccc1
298.15 K, 101 kPa
Conditions	viscosity [mPa·s]
x1 = 0.1219	0.721
x1 = 0.2379	0.685
x1 = 0.3487	0.649
x1 = 0.4543	0.611
x1 = 0.5554	0.573
x1 = 0.652	0.537
x1 = 0.7445	0.503
x1 = 0.8332	0.47
x1 = 0.9183	0.439

COc1ccccc1N + NCCO
viscosity [mPa·s], 100 kPa
Conditions	x1 = 0.0897	x1 = 0.1649	x1 = 0.2579	x1 = 0.3519	x1 = 0.4497	x1 = 0.5507	x1 = 0.6549	x1 = 0.7626	x1 = 0.8735
303.15 K	13.58	12.87	11.99	11.1	10.18	9.22	8.23	7.2	6.14
308.15 K	11.07	10.54	9.87	9.2	8.5	7.77	7.02	6.24	5.44
313.15 K	9.09	8.7	8.2	7.7	7.17	6.63	6.07	5.49	4.88
318.15 K	7.24	6.97	6.64	6.29	5.94	5.56	5.18	4.78	4.37

Source: the CheMixHub viscosity set
